The results in this text go back to US10179785B2, “Imidazotriazinone or imidazopyrazinone derivatives, and use thereof” (ST PHARM CO., LTD., priority 2014, dated 2019).

Where a name gives a salt, the structure may show the parent alone.

The assay has as its target T1, tankyrase 1 (Homo sapiens, UniProt O95271).
T1 construct: purchased Trevigen 4700-096-K
T1 sequence (O95271 1-1327): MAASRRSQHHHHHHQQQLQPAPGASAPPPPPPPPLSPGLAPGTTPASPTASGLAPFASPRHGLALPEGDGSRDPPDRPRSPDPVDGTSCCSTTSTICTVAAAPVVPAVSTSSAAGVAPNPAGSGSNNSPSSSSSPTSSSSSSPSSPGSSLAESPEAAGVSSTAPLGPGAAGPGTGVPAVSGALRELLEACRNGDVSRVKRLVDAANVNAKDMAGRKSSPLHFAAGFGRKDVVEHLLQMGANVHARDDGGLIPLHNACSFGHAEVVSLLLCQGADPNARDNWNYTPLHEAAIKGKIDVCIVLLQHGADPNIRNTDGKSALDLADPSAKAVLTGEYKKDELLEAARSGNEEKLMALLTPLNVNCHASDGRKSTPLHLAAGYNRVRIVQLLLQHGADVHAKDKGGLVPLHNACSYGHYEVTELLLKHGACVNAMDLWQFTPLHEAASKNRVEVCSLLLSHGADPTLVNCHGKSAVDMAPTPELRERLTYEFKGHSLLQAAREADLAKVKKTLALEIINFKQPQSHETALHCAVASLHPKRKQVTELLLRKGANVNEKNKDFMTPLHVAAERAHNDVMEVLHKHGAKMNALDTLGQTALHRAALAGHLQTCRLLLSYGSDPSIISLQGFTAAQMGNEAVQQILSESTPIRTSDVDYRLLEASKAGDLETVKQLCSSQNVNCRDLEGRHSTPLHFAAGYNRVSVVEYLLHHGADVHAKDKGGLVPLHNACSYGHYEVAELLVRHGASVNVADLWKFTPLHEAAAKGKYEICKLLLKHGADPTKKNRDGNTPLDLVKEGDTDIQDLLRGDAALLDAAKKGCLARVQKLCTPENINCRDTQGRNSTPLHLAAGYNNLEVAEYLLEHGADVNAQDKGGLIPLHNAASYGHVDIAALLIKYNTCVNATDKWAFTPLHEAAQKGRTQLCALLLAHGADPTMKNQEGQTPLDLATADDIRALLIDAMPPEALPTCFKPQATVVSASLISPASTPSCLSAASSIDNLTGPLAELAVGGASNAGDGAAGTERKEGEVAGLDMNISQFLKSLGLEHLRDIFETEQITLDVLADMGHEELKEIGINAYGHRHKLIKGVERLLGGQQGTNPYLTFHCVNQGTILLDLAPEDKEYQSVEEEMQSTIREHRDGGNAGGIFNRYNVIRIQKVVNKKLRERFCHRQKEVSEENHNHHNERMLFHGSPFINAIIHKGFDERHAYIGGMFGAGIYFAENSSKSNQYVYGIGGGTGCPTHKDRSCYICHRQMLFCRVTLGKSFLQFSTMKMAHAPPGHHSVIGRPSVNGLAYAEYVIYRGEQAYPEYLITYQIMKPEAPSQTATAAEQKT
Put plainly: Analysis of activity of tankyrase 1 (Trevigen kit, ELISA absorbance at 450 nm). The assay is classed as biochemical. To be noted: Trevigen kit Cat. No. 4700-096-K; reaction at rt for 30 min; read-out: TNKS1 (IC50). On the procedure:
Activities of novel compounds synthesized according to Examples 1 to 48 against tankyrase 1 were analyzed using a Trevigen kit (Cat. No. 4700-096-K). Poly PAR histone protein-coated 96-well plate, anti-PAR monoclonal antibody and goat anti-mouse IgG-HRP were used for measurement of absorbance by ELISA method. Specifically, 20× I-PAR assay buffer was diluted to 1× by adding water, and 50 μL of the diluted buffer was added to each well of the 96-well plate followed by reacting at rt for 30 min. Then, the supernatant was completely removed from each well and 10 μL of 1× I-PAR assay buffer and 15 μL of assay substrate were added to each well along with 1 μL of a 50× solution of inhibitors to be tested, which were the compounds obtained in the Examples 1 to 48. 10 m Units/μL of tankyrase 1 enzyme was diluted 50-fold with 1× I-PAR assay buffer and 25 μL of the diluted enzyme was added to each well and reacted while stirring at rt for 30 min. One without any compound of the present invention was used as a positive control and another containing 1× I-PAR assay buffer with the same volume instead of tankyrase 1 enzyme was used as a negative control. Upon completion of the reaction, 200 μL of PBSX, which was prepared by adding 0.1% triton X-100 to PBS, was added and removed and this washing process was repeated twice. Washing was repeated twice more using PBS in the same manner. 5× antibody diluent was diluted with distilled water to 1× concentration, 50 μL of the diluted goat anti-mouse IgG-HRP to 1/2000 was added to each well and reacted while stirring at rt for 30 min. Washes were carried out twice using PBSX and PBS, respectively. After addition of 50 μL of TACS-sapphire to each well of the plate, the plate was blocked from light to react for 10 min to 15 min and the color of the reaction solution turned blue. To stop the reaction, 50 μL of 0.2N HCl was added to turn the solution yellow. Finally, the absorbance of the resulting solution was measured at 450 nm.
With `COC(C)c1cc(F)c(N2CCN(c3nn4c(C)ncc4c(=O)[nH]3)CC2)c(F)c1` (centres unmarked) [compound 14, 2-(4-(2,6-Difluoro-4-(1-methoxyethyl)phenyl)piperazin-1-yl)-7-methylimidazo[1,5-f][1,2,4]triazin-4(3H)-one], the IC50 worked out at 69.2 nM.
Regarding `Cc1ncc2c(=O)[nH]c(N3CCN(c4c(F)cc(C(C)O)cc4F)CC3)nn12` (centres unmarked) [compound 13, 2-(4-(2,6-Difluoro-4-(1-hydroxyethyl)phenyl)piperazin-1-yl)-7-methylimidazo[1,5-f][1,2,4]triazin-4(3H)-one], the IC50 came out at 45.7 nM.
The figure for `Cc1ncc2c(=O)[nH]c(N3CCN(c4c(F)cc(OCC(O)CO)cc4F)CC3)nn12` (centres unmarked) [compound 9, 2-(4-(4-(2,3-Dihydroxypropoxy)-2,6-difluorophenyl)piperazin-1-yl)-7-methylimidazo[1,5-f][1,2,4]triazin-4(3H)-one] is 79.5 nM; for `COCCN(C)Cc1cc(F)c(N2CCN(c3nn4c(C)ncc4c(=O)[nH]3)CC2)c(F)c1` [compound 19, 2-(4-(2,6-Difluoro-4-(((2-methoxyethyl)(methyl)amino)methyl)phenyl)piperazin-1-yl)-7-methylimidazo[1,5-f][1,2,4]triazin-4(3H)-one] it is 102 nM; for `Cc1ncc2c(=O)[nH]c(N3CCN(c4c(F)cc(OCCOC(=O)[C@H](C)N)cc4F)CC3)nn12` [compound 8, (S)-2-(3,5-Difluoro-4-(4-(7-methyl-4-oxo-3,4-dihydroimidazo[1,5-f][1,2,4]triazin-2-yl)piperazin-1-yl)phenoxy)ethyl 2-aminopropionate hydrochloride] it is 43.6 nM.
